Test [1] has as its target T1, N-terminal active peptide segment of POLQ with ATPase activity (M1-N899) (Homo sapiens, UniProt O75417).
T1 construct: N-terminal active peptide segment of POLQ with ATPase activity (M1-N899)
The test can be described thus: POLQ enzyme activity inhibition experiment (ATPase, NADH oxidation-coupled, OD 340 nm). The format is biochemical. As for the experimental part:
Brief introduction to experimental principle: After the N-terminal active peptide segment of POLQ with ATPase activity (M1-N899) is co-incubated with the compound, this peptide segment reacts with substrate dT50 under the action of ATP to generate ADP. The generated ADP then participates in the subsequent NADH oxidation-coupled enzymatic reaction, catalyzing the conversion of NADH to NAD^+. The reduction in the OD value of NADH at 340 nm was measured using the Envision microplate reader from Perkin Elmer to reflect enzyme activity. Experimental instruments: Labcyte Echo 650 pipetting system; Perkin Elmer Envision microplate reader; Eppendorf 5810R centrifuge; Boxun BSD-YX3400 thermostatic shaker.
Experimental methods: The POLQ enzyme was diluted to 100 nM with a reaction buffer (20 mM Tris HCl (pH 7.80), 80 mM KCl, 10 mM MgCl2, 1 mM DTT, 0.01% w/v bovine serum albumin, 0.01% v/v Tween-20, 5% v/v glycerol). The test compound was diluted to different concentrations with dimethyl sulfoxide (DMSO) using an Echo 650 pipetting system and transferred to a 384-well plate, 20 µL/well of 100 nM POLQ was added, and the mixture was incubated at room temperature for 15 min. A reaction mixture solution was prepared with the concentrations of each component in the reaction mixture solution as follows: 100 µM ATP, 300 nM dT50, 300 µM NADH, 6 mM PEP, 10 U/mL lactate dehydrogenase, and 20 U/mL pyruvate kinase. 20 µL/well of the reaction mixture solution was added to start the enzyme reaction. In the reaction system, the compound was serially diluted 3-fold from the final concentration of 10 µM, covering a concentration range from 10 µM to 0.0005 µM, and the final concentration of DMSO in the system was 0.2% v/v. After the 384-well plate was reacted at room temperature for 20 min, the OD value at 340 nm was read using an Envision microplate reader.
(§1) Inhibition rates were calculated and fitted using XLfit software to give the IC50 of the compound.
A blank group and a DMSO group were set in the experiment. […]

The test system of test [2] is DLD-1 BRCA2 (-/-) cell line. The test can be described thus: Inhibition of tumor cell proliferation, 7 days, CTG. Type of test: cell-based. Conditions: Homo sapiens, DLD-1, 168 h, 7 days incubation. As for the experimental part:
(§2) Brief introduction to experimental principle: After the compound was co-incubated with tumor cells for 7 days, the ATP in viable cells was quantified using the CTG kit from Promega to reflect the effect of the compound on tumor cell proliferation.
(§3) Experimental methods: DLD-1 parent cells or DLD-1 BRCA2 (-/-) cells were diluted with an RPMI 1640 medium containing 10% FBS and then added to a 96-well plate (90 µL/well), with the number of cells being 600/well or 1200/well, respectively, and incubated overnight in an incubator at 37 °C with 5% CO2. The test compound was diluted to different concentrations with dimethyl sulfoxide (DMSO) and then added to a 96-well plate, such that, in the reaction system, the compound was serially diluted 4-fold from the final concentration of 25 µM. The concentration range of the compound was from 25 µM to 0.0004 µM, and the final concentration of DMSO was 0.25% v/v. After incubation for 7 days, 50 µL/well of CTG was added, and the mixture was incubated at room temperature for 10 min. The luminescence (Lum) signal value was read using an Envision microplate reader, and the inhibition rate and half inhibitory concentration (IC50) were calculated.
as §1
(§4) A Blank well and a DMSO well were set in the experiment. The blank well contained 100 µL of an RPMI Medium 1640 medium containing 10% FBS, and the inhibition rate of the compound on tumor cell growth was considered to be 100% under this condition. For the DMSO well, 0.25% v/v DMSO was added to the cell-containing well, and the inhibition rate of the compound on tumor cell growth was considered to be 0 under this condition. Inhibition rate = 100 × (Lummax−Lumcompound)/(Lummax−Lummin)% [formula] wherein Lummax refers to the luminescence signal value of the well containing cells and 0.25% v/v DMSO, and Lumcompound refers to the luminescence signal value of the well containing the compound and cells. Lummin refers to the luminescence signal value of the well containing the medium and 0.25% v/v DMSO.

The test system of another test is DLD-1 parent cells. The description is as above. The conditions noted are these: Homo sapiens, DLD-1, 168 h, 7 days incubation. Type of test: cell-based. As for the experimental part: as §2, §3, §1, §4
For the next test, the system named is DLD-1 BRCA2 (-/-). The test can be described thus: Combined use with combination drug, matrix study, Bliss Independence model (Cell Titer Glo, 7 days). The format is cell-based. The conditions noted are these: combination with Olaparib (PARP inhibitor). As for the experimental part: (§5) DLD-1 colorectal adenocarcinoma cells, DLD-1 BRCA2 (-/-) colorectal adenocarcinoma cells, SHP-77 human small cell lung cancer cells, NCI-H82 human small cell lung cancer cells, LNCAP prostate cancer cells, KURAMOCHI human ovarian cancer cells, A2780 human ovarian cancer cells, and NCI-H23 non-small cell lung cancer cells were cultured in a 1640 medium containing 10% fetal bovine serum. SKOV3 human ovarian cancer cells were cultured in a McCoy's 5A (modified) medium containing 10% fetal bovine serum. OVCAR3 ovarian cancer cells were cultured in a 1640 medium containing 20% fetal bovine serum and 10 µg/mL bovine insulin. MDA-MB-436 breast cancer cells (natural BRCA1 mutation) and A549 non-small cell lung cancer cells were cultured in a DMEM medium containing 10% fetal bovine serum. Capan-1 human pancreatic cancer cells (natural BRCA2 mutation) were cultured in an IMDM medium containing 20% fetal bovine serum. The cells were all cultured at 37 °C with 5% CO2. Cells at the logarithmic growth phase were available for the experiment.
(§6) 100 µL of the cell medium was added to rows A and H and columns 1 and 12 of a 96-well cell culture plate. Cultured cells were resuspended (adherent cells were digested with trypsin) and counted to give information on cell density and viability. The dilution ratio of the resuspended cells required for inoculating a fixed number of cells into 80 µL of the medium in each culture well was calculated based on the cell density information. After the resuspended cells were diluted with the corresponding medium, 80 µL of the diluted cells were transferred to columns 2-11 of rows B-G of a 96-well cell culture plate using an Eppendorf multi-channel pipette (60 wells in total for each plate). The cell culture plate was incubated overnight in an incubator at 37 °C with 5% CO2.
(§7) The test compound and the combination compound were dissolved in DMSO to give a 10 mM solution for later use. In the experiment, the compound was further diluted to the corresponding concentration according to the concentration designed in the experiment, and based on this concentration, serial gradient dilution was performed. Matrix study was performed at 8 or 7 dose concentrations of the test compound (the lowest dose concentration was 0, and other specific concentration values were shown in FIG. 1) and 7 or 8 dose concentrations of the combination compound (the lowest dose concentration was 0, and other specific concentration values were shown in FIG. 1). 10 µL of each of the diluted combination compound and test compound was added to the corresponding cell plate well, such that the final concentration of DMSO was 0.25%. The test compound and the cells were incubated in an incubator at 37 °C with 5% CO2 for another 7 days, Cell Titer Glo was added at 50 µL/well, and the luminescence value of each well was read using an Envision microplate reader.
(§8) The luminescence value of the well containing only the cell medium was taken as the background (RLUbackground, corresponding cell survival rate to be 0%), the cell well containing only 0.25% DMSO without the compound was taken as the maximum signal (RLUDMSO, corresponding cell survival rate to be 100%), and the luminescence values of the remaining wells containing cells and compounds at different concentrations were taken as RLUsample. The survival rate of each cell well was calculated as follows: Survival rate (%) = (RLUsample−RLUbackground)/(RLUDMSO−RLUbackground) × 100% [formula]
(§9) The interaction between drugs (synergistic, independent, or antagonistic) was statistically analyzed by the Bliss Independence model using Combenefit software (Bliss, C.I., Bacteriol. Rev., 1956, 20, 243-258). The model assumes that each drug acts independently. The theoretical expected action curve of the combination was calculated from the following equation: Bliss effect = effect A + effect B−effect A × effect B [formula] wherein effect A and effect B are the effects of drugs A and B alone at specific concentrations. […]

A further test concerns MDA-MB-436. The description is as above. Type of test: cell-based. Conditions: combination with Niraparib (PARP inhibitor). As for the experimental part: as §5, §6, §7, §8, §9

The structures appear in SMILES notation.

T1 sequence (O75417 1-899): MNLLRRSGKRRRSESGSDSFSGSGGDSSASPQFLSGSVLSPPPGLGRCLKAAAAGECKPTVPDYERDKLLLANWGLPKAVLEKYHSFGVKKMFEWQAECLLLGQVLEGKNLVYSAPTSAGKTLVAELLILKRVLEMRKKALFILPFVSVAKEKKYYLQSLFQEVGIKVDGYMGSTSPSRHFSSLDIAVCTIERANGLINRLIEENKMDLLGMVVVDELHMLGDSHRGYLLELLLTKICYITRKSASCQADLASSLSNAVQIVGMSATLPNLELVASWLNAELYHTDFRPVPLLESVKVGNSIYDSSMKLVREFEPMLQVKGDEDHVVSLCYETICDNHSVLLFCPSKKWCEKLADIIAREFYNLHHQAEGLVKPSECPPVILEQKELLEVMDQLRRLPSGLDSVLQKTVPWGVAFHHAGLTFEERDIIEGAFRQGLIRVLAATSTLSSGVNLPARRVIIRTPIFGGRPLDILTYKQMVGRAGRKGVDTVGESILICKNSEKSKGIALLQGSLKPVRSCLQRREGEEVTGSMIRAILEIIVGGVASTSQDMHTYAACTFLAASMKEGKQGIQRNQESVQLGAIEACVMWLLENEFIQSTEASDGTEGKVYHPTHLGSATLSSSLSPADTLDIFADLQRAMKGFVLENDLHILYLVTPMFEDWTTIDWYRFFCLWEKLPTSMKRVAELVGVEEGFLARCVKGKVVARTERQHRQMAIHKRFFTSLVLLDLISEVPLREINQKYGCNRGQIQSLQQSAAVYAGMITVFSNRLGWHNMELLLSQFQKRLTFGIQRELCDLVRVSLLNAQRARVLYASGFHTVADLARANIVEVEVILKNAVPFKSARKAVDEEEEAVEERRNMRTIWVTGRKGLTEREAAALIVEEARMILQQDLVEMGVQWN

Consider `COc1ccc(Cl)cc1-c1cc(C)ncc1C(=O)Nc1nc2ncc(-c3ccc(C#N)cc3)nc2s1` [Compound I, 4-(5-Chloro-2-methoxyphenyl)-N-[6-(4-cyanophenyl)thiazolo[4,5-b]pyrazin-2-yl]-6-methylnicotinamide], for which the half-maximal inhibitory concentration (IC50) in test [1] is less than 100 nM; in test [2], less than 200 nM; in the test on DLD-1 parent cells it was not below 10000 nM. In addition, the Combined effect result in the test on DLD-1 BRCA2 (-/-) and in the test on MDA-MB-436 was “Synergistic” in each case.
For the molecule `COc1cnc(C)cc1-c1cc(C)ncc1C(=O)Nc1nc2ncc(-c3ccc(C#N)cc3)nc2s1` [Compound II, N-(6-(4-Cyanophenyl)thiazolo[4,5-b]pyrazin-2-yl)-5'-methoxy-2',6-dimethyl-[4,4'-bipyridinyl]-3-carboxamide], the IC50 was less than 100 nM in test [1], less than 200 nM in test [2] and not below 10000 nM with DLD-1 parent cells. Also, the Combined effect entry with DLD-1 BRCA2 (-/-) and with MDA-MB-436 was “Synergistic” throughout.
With `COc1ccc(Cl)cc1-c1cc(C)ncc1C(=O)Nc1nc2ncc(-c3ccc(C4CC4)cn3)nc2s1` [Compound III, 4-(5-Chloro-2-methoxyphenyl)-N-[6-(5-cyclopropylpyridin-2-yl)thiazolo[4,5-b]pyrazin-2-yl]-6-methylpyridine-3-carboxamide], the results for the half-maximal inhibitory concentration (IC50) in test [1] and in test [2] were less than 100 nM and less than 200 nM, respectively. For the same molecule, in the test on DLD-1 BRCA2 (-/-), the Combined effect result is recorded as “Synergistic”.

(Values after patent publication EP4744665A1, “COMBINATION OF POLQ INHIBITOR COMPOUND AND ANTI-CANCER THERAPEUTIC AGENT OR RADIOTHERAPY” (Simcere Zaiming Pharmaceutical Co., Ltd., priority 2023, dated 2025).)
